Data as given in patent publication US10758620B2, “Potentiated antimicrobial agents” (SEPTEOS, priority 2014, dated 2020).
Where two headings read alike, the source gives them in different places.

Assays:
E. Coli Strain 08138 = experiment: Etest, E. Coli Strain 08138; format: cell-based; conditions: for MIC: Escherichia coli, read-out: MIC of Pipera tazo, Strain 08138; for MIC of Cefoxitine / MIC of Tigecycline: Strain 08138
Description: The corresponding tests are made based on the usual MIC test: the Etest® (Biomerieux) strip is deposited onto the surface of a seeded agar medium in which the booster has been incorporated. This test enables solvent effect risks, that is a possible interaction with the solvent used in vitro, to be minimised.
The control corresponds to the test made without cineol. A control is made in each solvent tested: distilled water, Tween/water and DMSO.
ED control=antibiotic alone in distilled water
DMSO control=antibiotic alone in DMSO
TE control=antibiotic alone in Tween® 80

[1] = system: Strain 10168, methicillin resistant S. aureus (MRSA); experiment: Resistance test (resistant mutants), Strain 10168; format: cell-based; conditions: MRSA, text after Table 16
Procedure: After 48 h incubation, the presence or absence of colonies likely to be resistant mutants is observed.
ED control or DMSO=only distilled water or DMSO is added
Ciprofloxacine DMSO: addition of Ciprofloxacine in DMSO

Strain 10168 SARM = experiment: Growth test in liquid medium; format: cell-based; conditions: compound at a very low dose
Description: The growth tests are made in a liquid medium with prior dispersing the antibiotic booster in a suitable solvent (tween/water).
4XMIC means that the concentration of antibiotic is 4 times higher than its MIC, measured when used alone on the strain considered.

[2] = system: bacterial strains (Pyo, Coli, Staph); experiment: MIC measurement in agar medium, tested bacterial strains overall; format: cell-based; conditions: compound alone, depending on the strains
Description: (§1) Inhibitory minimum concentration measurement tests are made in a solid agar medium according to international standards in force (CLSI M7-A9 Jan 12 standards): dispersion of the compounds to be tested in a Mueller Hinton gelose. An adaptation relating to the hydrophobicity of compounds and compositions is however necessary to disperse them in the medium: dilution of the compounds in a solvent. The compounds and compositions incorporated in the agar medium can be diluted beforehand in one or more solvents (Tween® 80 diluted with water, Tween® 80 diluted with […], DMSO diluted with water). The strains are deposited onto the agar surface with a steers apparatus. In the examples, different dissolution methods for products are tested in parallel to circumvent the problems of water/solvent distribution coefficient of the molecules (antimicrobial and potentiator) whereas the bacteria grow only in the aqueous phase. The technical requirement will not intervene in in vivo tests. The same dilution methods can be implemented in a liquid medium (microplates and tubes). The same methodology is implemented with fungi. MIC measurement: the minimum inhibitory concentration measurement tests are made in an agar solid medium according to international standards in force (CLSI standards), according to the previously defined protocol. […] [table]

candidas = experiment: MIC measurement (dilution test) on yeast strains; format: cell-based, Candida; parameters: key to MIC 90 gain / MIC 50 gain: gain = MIC of antifungal alone / MIC of antifungal + booster; conditions: Sertaconazole with booster, solvent DMSO
Description: as §1, with “fungi. […]” for “fungi.”, “The booster contribution as compared with the MIC of the antibiotic alone is expressed in a (MIC ATB)/(MIC ATB+booster) ratio. Thereby, gains are defined: […] The yeast strains tested (n=33) belong to the […] albicans, Candida tropicalis, Candida krusei, Candida parapsilosis, Candida glabrata species.” for “[table]”

Pseudomonas aeruginosa = experiment: MIC measurement in agar medium (dilution test), Pyo; format: cell-based; conditions: potentiator alone
Description: as §1, with “fungi. […]” for “fungi.”, “The booster contribution as compared with the MIC of the antibiotic alone is expressed in a (MIC ATB)/(MIC ATB+booster) ratio. Thereby, gains are defined: […]” for “[table]”

[3] = booster 1 mg/L in agar, Tween/water
[4] = booster 4 mg/L in agar, Tween/water
[5] = booster 16 mg/L in agar, Tween/water

| Compound | MIC (E. Coli Strain 08138; booster 1 mg/L in agar, DMSO) [mg/L] | MIC (E. Coli Strain 08138; [3]) [mg/L] | MIC (E. Coli Strain 08138; booster 4 mg/L in agar, DMSO) [mg/L] | MIC (E. Coli Strain 08138; [4]) [mg/L] | MIC (E. Coli Strain 08138; booster 16 mg/L in agar, DMSO) [mg/L] | MIC (E. Coli Strain 08138; [5]) [mg/L] | MIC of Cefoxitine (E. Coli Strain 08138; booster 1 mg/L in agar, DMSO) [mg/L] | MIC of Cefoxitine (E. Coli Strain 08138; [3]) [mg/L] | MIC of Cefoxitine (E. Coli Strain 08138; booster 4 mg/L in agar, DMSO) [mg/L] | MIC of Cefoxitine (E. Coli Strain 08138; [4]) [mg/L] | MIC of Cefoxitine (E. Coli Strain 08138; booster 16 mg/L in agar, DMSO) [mg/L] | MIC of Cefoxitine (E. Coli Strain 08138; [5]) [mg/L] | occurrence of mutants on addition of the compound to ciprofloxacine [1] | effect of the compound on bactericidal rate of Augmentin (Strain 10168 SARM) | MIC [2] [mg/L] | MIC 50 gain (candidas; ratio 64/100) | MIC 90 gain (candidas; ratio 64/100) | MIC 50 gain (candidas; ratio 64/500) | MIC 90 gain (candidas; ratio 64/500) | MIC 50 (Pseudomonas aeruginosa; solvent DMSO) [%] | further results |
| --- | --- | --- | --- | --- | --- | --- | --- | --- | --- | --- | --- | --- | --- | --- | --- | --- | --- | --- | --- | --- | --- |
| CC(=O)OCC=Cc1ccccc1 [AC, cinnamyl acetate] | 6 | 2 | 4 | 2 | 8 | 2 | 2 | 2 | 1.5 | 1.5 | 0.5 | 4 | does not cause the occurrence of mutants any longer | enables the bactericidal rate of Augmentin® to be accelerated | > 10000 | 0.05 | 0.28 | 2.00 | 1.00 | 1.00 | MIC of Tigecycline (E. Coli Strain 08138; booster 1 mg/L in agar, DMSO): 0.38 mg/L; MIC of Tigecycline (E. Coli Strain 08138; [3]): 0.25 mg/L; MIC of Tigecycline (E. Coli Strain 08138; booster 4 mg/L in agar, DMSO): 0.38 mg/L; MIC of Tigecycline (E. Coli Strain 08138; [4]): 0.19 mg/L; MIC of Tigecycline (E. Coli Strain 08138; booster 16 mg/L in agar, DMSO): 0.125 mg/L; MIC of Tigecycline (E. Coli Strain 08138; [5]): 0.19 mg/L; MIC 90 (Pseudomonas aeruginosa; solvent DMSO): 1.00%; MIC 50 (Pseudomonas aeruginosa; solvent Tween/prop glyc): >1%; MIC 90 (Pseudomonas aeruginosa; solvent Tween/prop glyc): >1%; MIC 50 (Pseudomonas aeruginosa; solvent Tween/water): >1%; MIC 90 (Pseudomonas aeruginosa; solvent Tween/water): >1%; MIC 50 (Pseudomonas aeruginosa; solvent water/water): >1%; MIC 90 (Pseudomonas aeruginosa; solvent water/water): >1% |
| O=C(OCc1ccccc1)c1ccccc1 [BB, benzyl benzoate] | 3 | 6 | 6 | 4 | 6 | 4 | 2 | 2 | 3 | 2 | 2 | 3 | does not cause the occurrence of mutants any longer | enables the bactericidal rate of Augmentin® to be accelerated | > 10000 | 0.13 | 0.50 | 1.00 | 1.00 | 1.00 | MIC 90 (Pseudomonas aeruginosa; solvent DMSO): 1.00%; MIC 50 (Pseudomonas aeruginosa; solvent Tween/prop glyc): >1%; MIC 90 (Pseudomonas aeruginosa; solvent Tween/prop glyc): >1%; MIC 50 (Pseudomonas aeruginosa; solvent Tween/water): >1%; MIC 90 (Pseudomonas aeruginosa; solvent Tween/water): >1%; MIC 50 (Pseudomonas aeruginosa; solvent water/water): >1%; MIC 90 (Pseudomonas aeruginosa; solvent water/water): >1% |
